Residues, ends and D or L forms follow the SMILES beside them. *: point of attachment. Cbz = O=C(OCc1ccccc1)*; NHPr = CCCN*
| Compound | melting point [°C] |
| --- | --- |
| COc1c(N2CCNCC2)c(F)cc2c(=O)c(C(=O)O)cn(C3CC3)c12 | 177 to 178 |
| CC(=O)c1cc(C)cc(Br)c1O | 81 to 82 |
| CC1(C)C(=O)Nc2ccc(-c3ccc([N+](=O)[O-])s3)cc21 | 223 to 225 |
| O=C(O)CCCNC(=O)[C@@H](Cc1ccccc1)C[C@H](Cc1ccccc1)C(=O)O (relative stereo) | 127 to 129 |
| C[Si](C)(C)CCCOC1CCN(c2ccc([N+](=O)[O-])cc2)C1 (stereo unspecified) | 68 |
| NC(N)=NC(=O)Cc1c(-c2ccccc2)csc1-c1ccccc1 | 204 to 206 |
| O=C1NCC(c2ccc(F)cc2)N1CCCCS (stereo unspecified) | 102 to 104 |
| CCCN1C(=O)COc2cc(F)c(N=c3sc(=S)n4n3CCCC4)cc21 | 112 to 114 |
| Cc1ccc(NC(=O)CCCC2CCCCC2)cc1NC(=O)c1ccc(O)cc1 | 159 to 160 |
| Cc1cccc(-c2n[nH]cc2-c2ccc(F)c(-c3cn[nH]c3)c2)n1 | 110 to 112 |
| CCCNC(=O)C1CCCN1C(=O)C(C)NC(=O)OCc1ccccc1 (stereo not drawn) (Cbz-Ala-Pro-NHPr; configuration not given here) | 117 to 120 |
| CC(C)(CO)NC(=O)c1nn(-c2ccc(Cl)cc2F)c2c1C1CCC2C1 (stereo unspecified) | 158 to 160 |
| N#CC1(CCNC(=O)C(Cl)Cl)CC1 | 97 to 100 |
| O=C1CCCn2c(=O)n(Cc3ccccc3)c3cccc1c32 | 135 |
| O=C(OC1CCCCC1)c1cncn1C(c1ccccc1)c1ccccn1 (stereo unspecified) | 161 |
| CCOc1ccc2c(c1)n(C1CCCCC1)c(=O)n2S(=O)(=O)c1ccc(C(=O)NC(C)(C)CC(C)(C)C)cc1OC | 180 |
| COc1c(-c2cc3c(s2)C(O)CCC3)ccc2c(=O)c(C(=O)O)cn(C3CC3)c12 (stereo unspecified) | 238 to 240 |
| COc1cc2ncnc(N3CCC(C(=O)CN4C=CC(C)=NS4(=O)=O)CC3)c2cc1OC | 172 to 175 |
| CC(C)OC1=CC2=CCC3C4CCC(=O)C4(C)CCC3C2(C)CC1 (stereo unspecified) | 147 to 151 |
| C=Cn1cc(C(=O)O)c(=O)c2cc(F)c(-c3ccncc3)nc21 | 254 to 257 |

| Compound | melting point [°C] |
| --- | --- |
| COC(=O)Cc1c(O)ncnc1O | > 200 |
| Clc1ccc([C@@H]2CNc3ccccc3S2)cc1 | 151 to 153 |
| CC(=O)Nc1ccc2[nH]c(C=CC(=O)O)cc2c1 | 238 to 239 |
| N#Cc1c(OCC2CO2)cccc1[N+](=O)[O-] (stereo unspecified) | 131 to 135 |
| Cc1ccccc1NC(=O)CN1C[C@@H](C)N(S(=O)(=O)c2cccc(N)c2)[C@@H](C)C1 | 202 to 203 |
| O=c1oc2ccc(-c3ccc(F)cc3F)cc2c(=O)n1-c1ccc(F)c(F)c1 | 193 to 194 |
| CN(C)CCOc1ccc(C#N)cn1 | 58 |
| CC(=O)OC1N=C(c2ccccc2Cl)c2nc(Cl)ccc2-n2c1n[nH]c2=O (stereo unspecified) | 232 to 236 |
| O=Cc1ccc(-c2ccccc2)c(F)c1 | 82 to 83 |
| CCONC(CC)=C1C(=O)OC(CC)=C(Br)C1=O | 76.5 to 77.5 |
| CCSc1cc(C)nc(SCC)c1NC(=O)CCCCCCCSc1nc2ccccc2s1 | 94 to 96 |
| Cc1cc(OC(F)F)nc(NC(=O)NS(=O)(=O)c2ccccc2OC(F)F)n1 | 163 to 164 |
| Cc1cc(C)cc(OC(=O)C(c2ccccc2)N2CCN(C3CCN(C(=O)c4cc(C(F)(F)F)cc(C(F)(F)F)c4)C(Cc4ccccc4)C3)CC2)c1 (stereo unspecified) | 88.1 |
| CN1C(=O)Cn2cc(C(=O)NCc3ccc(Cl)cc3)c(=O)c3cc(CN4CCOCC4)cc1c32 | 213 to 214 |
| N#CNC(=O)C=NNc1ccc(F)cc1 | 265 to 267 |
| CC(=O)C(C#N)c1ccc2c(c1)Cc1cccnc1O2 (stereo unspecified) | 245 to 248 |
| COC(=O)c1c(S(=O)(=O)NC(=O)Nc2nc(C)nc(OC)n2)c(C)nn1C | 195 to 198 |
| COC(=O)C=C(C)NCC(O)CO (stereo unspecified) | 109 to 111 |
| COc1cccc(-c2nc(Cl)nc(Nc3cccc([N+](=O)[O-])c3)n2)c1 | 155 |
| CCC1(Cl)Cc2cc(OCC(=O)OC)c(Cl)c(Cl)c2C1=O (stereo unspecified) | 111 |

The next lines start with the values.

| melting point [°C] | Compound |
| --- | --- |
| 140 to 141 | O[C@@H]1CNC[C@H]1Sc1ccccc1 (relative stereo) |
| 264 to 265 | Nc1cc(C(=O)O)cc(S(N)(=O)=O)c1Oc1ccc(OCc2ccccc2)cc1 |
| 95 to 120 | COC(=O)C1Oc2ccccc2C(C)c2ccccc2O1 (stereo unspecified) |
| 73 to 74 | CCCc1cc(CCC)n2nc(C)c(C#N)c2n1 |
| 238 to 239 | C=Cn1cc(C(=O)O)c(=O)c2ccc(N3CCN(C)CC3)nc21 |
| 222 to 223 | O=C1c2c(O)cccc2C(O)(c2cccc(C(F)(F)F)c2)c2cccc(O)c21 |
| 229 | CC(C)NS(=O)(=O)c1cccc(NC(=O)c2cnn3c(C(F)F)cc(-c4ccc(C(F)(F)F)cc4)nc23)c1 |
| 169 to 171 | O=C(c1cc(O)c(O)c([N+](=O)[O-])c1)c1ccccc1F |
| 232 to 233 | CC(=O)Nc1ccc(S(=O)(=O)NCC(O)(Cn2cncn2)c2ccc(Cl)cc2Cl)cc1 (stereo unspecified) |
| 120 to 121 | CC(=O)SCCC(=O)N1N=C(c2ccc(C(F)(F)F)cc2)SC1C(=O)OCc1ccccc1 (stereo unspecified) |
| 164 | COc1ccc(O)c2c(C)c(C)[nH]c12 |
| 59 to 60 | COC(=O)CCCCC(=O)c1cccc(F)c1O |
| 188 | CS(=O)CCc1nc2nc[nH]c2c2nc(-c3ccc(-c4ccccc4)cc3)nn12 (stereo unspecified) |
| 337 to 339 | O=C1NCc2cc(-c3cnc4[nH]c(=O)n(CC5CCCCC5)c4n3)ccc21 |
| 65 to 66 | FC(F)(F)c1ccc(Oc2ccc3nonc3c2)c(Cl)c1 |
| 178 to 180 | COc1cc2c(c(Cl)c1Cl)SCC2=O |
| 149 to 150 | O=C(Nc1ccccc1)c1cccc(C2=NOCCS2)c1 |
| 206 to 207 | C[C@]1(COc2ccc(N3CCN(Cc4ccc(C(F)(F)F)cc4)CC3)cc2)Cn2cc([N+](=O)[O-])nc2O1 |
| 60 to 63 | CCCCCCC/C=C/C(=O)NC |
| 88 to 90 | CCOC(=O)CCC(C#N)(c1cccc(F)c1)N1CCOCC1 (stereo unspecified) |
| 102 to 104 | C=CCNC(=O)N1CC(Oc2ccc(C(F)(F)F)cc2Cl)C1 |

| melting point [°C] | Compound |
| --- | --- |
| 160 to 161 | CCCn1c(=O)c2c(nc(/C=C/c3ccc(OC)cc3)n2C)n(CCC)c1=O |
| 109 to 111 | Cc1cc([N+](=O)[O-])c(Cl)c([N+](=O)[O-])c1C |
| 279 | CCOC(=O)C1=C(N)NC2=C(C(=O)CCC2)C1c1cccc2ccccc12 (stereo unspecified) |
| 252 to 253 | Cc1nnc(-c2ccc3occ(C(=O)O)c3c2)o1 |
| 92 to 94 | O=c1scc(-c2ccc(CCO)cc2)s1 |
| 131 to 134 | C=CC[C@@H](C(=O)N[C@H](C(=O)N[C@H](C)c1ccccc1)C(C)(C)C)[C@H](OCC)C(=O)OC |
| 312 to 313 | Cn1cc(C2=C(c3c4n(c5ccccc35)CCC(C#N)C4)C(=O)NC2=O)c2ccccc21 (stereo unspecified) |
| 161 to 163 | CC(C)(C)OC(=O)NCc1cc(C(C)(C)C)cc(Cl)c1O |
| 155 to 157 | c1ccc(CNCc2n[nH]c(-c3ccc(CN4CCCCCC4)s3)n2)cc1 |
| 153 to 160 | CC(C)(C)OC(=O)NC[C@H]1CN(c2ccc3c(c2)CC(C(C)(C)C)N3)C(=O)O1 (stereo partly specified) |
| 130 to 132 | CC(O)(c1ccc(Oc2ccccc2)cc1)c1cccnc1 (stereo unspecified) |
| 195 to 197 | CC(C)Oc1nc(N)nc2c1ncn2C1CC(N=[N+]=[N-])C(CO)O1 (stereo unspecified) |
| 92 to 94 | Fc1ccc(-c2cncc(CNCCOc3cccc4ccccc34)c2)cc1 |
| 135 | COc1ccc(S(=O)C(C(=O)NO)c2ccccc2)cc1 (stereo unspecified) |
| 90 | CCOc1ccc(SCCSc2ccc(OCC)cc2)cc1 |
| 108 to 110 | CCOC(=O)C(=Cc1cccn2cc(C(C)(C)C)nc12)N=[N+]=[N-] |
| 174 to 177 | CS(=O)(=O)c1ccc(-c2cnn(-c3cccc(Cl)c3)c(=O)c2Cc2ccccc2)cc1 |
| 143 to 144 | CCCCCCNC(=O)Nc1ccccc1C(=O)NCCC1CCN(C(c2ccccc2)c2ccccc2)CC1 |
| 125 to 127 | CCCc1c(O)c(C(C)=O)cc2c(C)cc(C(=O)O)nc12 |
| 226 to 230 | CCCn1c(=O)c2[nH]c(C3CC4COCC4C3)nc2n(CCC)c1=O (stereo unspecified) |
| 62 to 64 | CCN[C@@H]1CN(C(=O)c2nn(C)c3ccccc23)C[C@@H]1C (relative stereo) |

| melting point [°C] | Compound |
| --- | --- |
| 131 to 133 | Cc1ccc(/C=C/c2c(C(C)C)nc(C(C)C)c(CO)c2-c2ccc(F)cc2)cc1 |
| 116 to 118 | O=[N+]([O-])c1ccc(Nc2cccc(-n3cccc3)c2)c([N+](=O)[O-])c1 |
| 262 to 264 | CCCc1nc(S(=O)(=O)N(c2c(Cl)cccc2Cl)S(=O)(=O)c2nc(CCC)n(-c3ccccc3)n2)nn1-c1ccccc1 |
| 50.5 | CCCCOC(=O)NCCC(=O)O |
| 237 to 238 | Cn1c2cc(C=O)ccc2c2nc3ccccc3nc21 |
| 129 to 131 | CCOCCc1ccc(OCCN(C(=O)n2cncn2)c2ncnc3sc(CC)cc23)c(C)c1 |
| 162 to 165 | CN1CCCCC1=C1C(=O)N(c2cccc(Cl)c2)c2ccccc21 |
| 63 to 65 | OCCc1cc(Br)ccc1O |
| 238 to 251 | O=C(O)c1sc(-c2cccnc2)nc1Cl |
| 79 to 81 | N[C@H]1CCN(C(=O)c2cc(C(F)(F)F)cc(C(F)(F)F)c2)[C@H](Cc2ccc(Cl)cc2)C1 |
| 163 to 164 | COc1ccc(Oc2ccc3c(c2)OCC(=O)N3)cc1 |
| 104 to 105 | FCc1cccc(C#CCCn2nc3cc(F)c(F)cc3n2)n1 |
| 92 to 95 | CCOC(=O)C1OC1C(=O)NC(CC(C)C)C(=O)NCCC(C)CO (stereo unspecified) |
| 96.5 to 97 | O=C1C=CC(=O)N1CO |
| 90 to 92 | O=C(Nc1ccc(OCCCN2CCOCC2)c2ccccc12)c1cc(F)cc(N2CCCCC2)c1 |
| 185 to 188 | O=C(Nc1ccc(-n2nc(C(F)(F)F)cc2C(F)(F)F)cc1)c1c(F)cc(Cl)cc1Cl |
| > 300 | Cn1cc(S(=O)(=O)Cl)c(=O)c2cc(F)ccc21 |
| 136 to 137 | CC(=O)Oc1cc(OC(C)=O)c2ccccc2c1OC(C)=O |
| > 300 | CN(c1nc(-c2cc3ccccc3[nH]c2=O)cs1)S(=O)(=O)c1cn(C)cn1 |
